Measurements as given in patent publication US5225530A, “Polypeptide useful for the preparation of antimalarial vaccines and of diagnostic kits for the detection of malarial affections” (priority 1986, dated 1993).

System: sporozoites of P. falciparum
Test: Inhibition of penetration of sporozoites into human hepatocytes
Assay type: cell-based
Conditions: sera of immunized C57BL/6 mice; 1:5 solution of sample; human hepatoma cells
Protocol: Human hepatoma cells were seeded at a concentration of 10^5 cells/chamber in Lab.-Tek plastic chambers (Miles) and cultivated for 24-48 hours
Then, to each chamber 25 μl was charged of a suspension containing 5-10^4 sporozoites of P. falciparum and 25 μl of a 1:5 solution of the sample under test.
The sporozoites were obtained from salivary glands of Anopheles stephensi infected with P. falciparum.
Two and six days later, the number of infected hepatocytes was determined by immunofluorescence by using monoclonal anti-P. falciparum CS protein antibodies.

Substance: (Asn--Ala--Asn--Pro)40 [(NANP)40]
- inhibition of the penetration of the sporozoites of P. falciparum into the hepatic cells: < 86%
